The results in this text go back to patent US20240206462A1, “ESSENTIAL OIL-BASED AGRICULTURAL COMPOSITION AND METHOD FOR CONTROLLING A PEST USING THE SAME” (MOMENTIVE PERFORMANCE MATERIALS INC., priority 2021, published 2024).

This assay relates to tomato grey mold (Botrytis cinerea). In words: Plate method growth inhibition of fungal plant pathogen on PDA medium. It is filed as cell-based. The settings on record: concluded from geraniol-based compositions.

Regarding `CC(C)=CCCC(C)=CCO` [geraniol, 3,7-dimethylocta-2,6-dien-1-ol], the “inhibition activity on Botrytis genus, especially Botrytis cinerea” value is “high inhibition activity”.
